Assay results taken from patent US11382956B2, “Amylin analogues” (Zealand Pharma A/S, priority 2016, dated 2022).
pEC50: −log10 of the molar value. Numbered stars: 1 amine (or outer) side, 2 acyl side, 3 side chain; on linkers, the order of the positions; unused ones are H or OH. Bridge positions count the residues as written; N and C are the ends. Square brackets hold non-standard residues; d marks the D form. Peptide text beside a SMILES is read from it. * marks the point of attachment. C20 diacid = O=C(O)CCCCCCCCCCCCCCCCCCC(=O)*; γGlu = O=C(O)[C@H](CCC(=O)[*:2])N[*:1]; Hyp = O=C(O)[C@@H]1C[C@@H](O)CN1; NMeI = CC[C@H](C)[C@H](NC)C(=O)O; Aad = N[C@@H](CCCC(=O)O)C(=O)O; Sar = CNCC(=O)O

Legend:
[1] = target: T1, recombinant human calcitonin receptor (hCT-R) (Homo sapiens, UniProt P30988); assay: hCT-R cAMP assay (AlphaScreen) in 1321N1 cells; assay type: cell-based; conditions: cAMP formation, 45 min stimulation
T1 construct: host or cells: human astrocytoma cell line 1321N1
T1 sequence (P30988 25-474): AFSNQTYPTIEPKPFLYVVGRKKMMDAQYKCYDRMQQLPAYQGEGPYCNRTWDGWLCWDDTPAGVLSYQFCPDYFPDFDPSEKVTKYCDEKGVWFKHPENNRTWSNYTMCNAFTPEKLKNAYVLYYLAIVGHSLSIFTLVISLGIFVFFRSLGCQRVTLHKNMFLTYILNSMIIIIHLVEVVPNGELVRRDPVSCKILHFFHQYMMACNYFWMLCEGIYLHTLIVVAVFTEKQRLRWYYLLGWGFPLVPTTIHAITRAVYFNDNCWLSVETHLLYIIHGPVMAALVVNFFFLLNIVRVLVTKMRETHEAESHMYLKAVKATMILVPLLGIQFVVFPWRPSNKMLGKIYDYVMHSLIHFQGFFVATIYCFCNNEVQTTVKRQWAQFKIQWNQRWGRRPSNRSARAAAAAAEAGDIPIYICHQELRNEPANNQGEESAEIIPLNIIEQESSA
Outline: (§1)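 EC50 values come from curve fits over at least 7 peptide concentrations, with cAMP read by AlphaScreen competition after 1 h in the dark. Cells were 1321N1 lines carrying human calcitonin receptor, with RAMP3 co-expressed for AMY3, treated 45 min at room temperature in the presence of IBMX.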

[2] = target: T2, recombinant human amylin 3 receptor (hAMYR3) (Homo sapiens, UniProt O60896+P30988); assay: hAMYR3 cAMP assay (AlphaScreen) in 1321N1 cells; assay type: cell-based; conditions: cAMP formation, 45 min stimulation
T2 construct: host or cells: human astrocytoma cell line 1321N1
T2 sequence (P30988 25-474): T1 sequence (P30988 25-474)
T2 sequence (O60896 24-148 partner): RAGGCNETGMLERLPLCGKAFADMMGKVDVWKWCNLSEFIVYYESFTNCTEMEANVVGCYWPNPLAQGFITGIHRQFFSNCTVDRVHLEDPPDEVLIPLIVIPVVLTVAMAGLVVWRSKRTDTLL
Outline: as §1

[3] = Assessment of physical stability: fibril formation by Thioflavin T fluorescence; assay type: physicochemical; parameters: key: FND = fibrillation not detected; FD = fibrillation detected; conditions: 1 mg/mL peptide; for Fibrillation (in buffer) pH4 acetate: 50 mM acetate buffer pH 4.0, 96 hours at 40° C.; for Fibrillation (in buffer) pH7 histidine: 50 mM histidine buffer pH 7.0, 96 hours at 40° C.; for Fibrillation (in buffer) pH7 phosphate: 50 mM phosphate buffer pH 7.0, 96 hours at 40° C.
Outline: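 Fibrillation detected (FD) means a significant rise in ThT fluorescence over 96 hours at 40° C, read at 10 min intervals each preceded by 300 s automixing. Samples: 1 mg/mL peptide, 40 μM ThT, in 50 mM phosphate or histidine (pH 7.0) or acetate (pH 4.0), triplicate.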

[4] = Assessment of chemical stability in 40 mM buffers at 40° C. (RP-HPLC); assay type: physicochemical; conditions: 1 mg/mL; for % degradation after 72 h at 40° C. pH6 phosphate: phosphate buffer pH 6, 72 h; for % degradation after 14 days at 40° C. pH6 phosphate: phosphate buffer pH 6, 14 days; for % degradation after 72 h at 40° C. pH7 phosphate: phosphate buffer pH 7, 72 h; for % degradation after 14 days at 40° C. pH7 phosphate: phosphate buffer pH 7, 14 days; for % degradation after 72 h at 40° C. pH4 acetate: acetate buffer pH 4, 72 h
Outline: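 Degradation is the main-peak area-% at each time point minus that at t=0, measured by C8 reversed-phase HPLC (TFA/acetonitrile/water gradient, 220 nm). Incubation at 40° C for 3 or 14 days, 1 mg/mL peptide in 40 mM buffer at pH 4, 6 or 7.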

[5] = Effect on acute food intake and body weight in normal Sprague Dawley rats; assay type: in vivo, Sprague Dawley (SD) rats; conditions: Dose: 30 nmol/kg sc, vehicle-corrected
Source text: Sprague Dawley (SD) rats were obtained from Janvier Labs, France. The animals arrived at least 14 days before the study start to allow acclimatization to experimental conditions. From arrival and throughout the study, the rats were housed in groups of 2 to 4 (n=2-4) in a light-, temperature- and humidity-controlled room. Animals had access ad libitum to food (KLIBA 3430, Provimi Kliba AG, Switzerland) and water (domestic quality tap water) during the entire study. Per group 6-8 rats were included. A vehicle group and positive control group were included in each set of tests. […] Dosing volume was 2 ml/kg. Food intake was recorded online using an automated food intake system (HM02, MBRose, Denmark) for 4 days or manually at 0 h for a predose and then 24, 48, 72 and 96 h post dosing. Body weight was measured daily.
Statistical analyses were performed using GraphPad™ Prism version 7. The measured parameters were compared using two-way ANOVA followed by Dunnett's multiple comparison tests. Differences were considered statistically significant at p<0.05.

| SMILES | pEC50 [1] | pEC50 [2] | Fibrillation (in buffer) pH4 acetate [3] | Fibrillation (in buffer) pH7 histidine [3] | Fibrillation (in buffer) pH7 phosphate [3] | % degradation after 72 h at 40° C. pH6 phosphate [4] | % degradation after 14 days at 40° C. pH6 phosphate [4] | % degradation after 72 h at 40° C. pH7 phosphate [4] | % degradation after 14 days at 40° C. pH7 phosphate [4] | Body weight reduction in % at 48 h [5] | Food intake reduction in % at 48 h [5] | % degradation after 72 h at 40° C. pH4 acetate [4] | % degradation after 14 days at 40° C. pH4 acetate ([4]; acetate buffer pH 4, 14 days) |
| --- | --- | --- | --- | --- | --- | --- | --- | --- | --- | --- | --- | --- | --- |
| CC[C@H](C)[C@@H](C(=O)N[C@@H](CC(C)C)C(=O)N[C@@H](CO)C(=O)N[C@@H](CO)C(=O)N[C@H](C(=O)N[C@@H](CCC(=O)O)C(=O)N[C@H](C(=O)NCC(=O)N[C@@H](CO)C(=O)N[C@@H](CC(N)=O)C(=O)N[C@H](C(=O)N1C[C@H](O)C[C@H]1C(N)=O)[C@@H](C)O)C(C)C)[C@@H](C)O)N(C)C(=O)[C@H](C)NC(=O)CN(C)C(=O)[C@H](Cc1ccccc1)NC(=O)[C@H](CO)NC(=O)[C@H](CO)NC(=O)[C@H](CCCNC(=N)N)NC(=O)[C@H](CCC(N)=O)NC(=O)[C@H](CC(C)C)NC(=O)[C@H](Cc1ccccc1)NC(=O)[C@H](CCCC(=O)O)NC(=O)[C@H](C)NC(=O)[C@H](CC(C)C)NC(=O)[C@H](CCCNC(=N)N)NC(=O)[C@H](CCC(=O)O)NC(=O)[C@@H](NC(=O)[C@H](C)NC(=O)[C@@H]1CCCCNC(=O)C[C@H](NC(=O)[C@H](CCC(=O)O)NC(=O)CC[C@H](NC(=O)CCCCCCCCCCCCCCCCCCC(=O)O)C(=O)O)C(=O)NCC(=O)N[C@@H]([C@@H](C)O)C(=O)N[C@@H](C)C(=O)N[C@@H]([C@@H](C)O)C(=O)N1)[C@@H](C)O [Compound 37, [19CD]-isoGlu-ED()GTATK()ATERLA-Aad-FLQRSSFGly(Me)-A-Ile(Me)-LSSTEVGSNT-Hyp-NH2] ({C20 diacid-γGlu}-EDGTATKATERLA[Aad]FLQRSSF[Sar]A[NMeI]LSSTEVGSNT[Hyp]-NH2; lactam 2-7) | 9.94 | 10.51 | FD | FND | FND | <1% | <1% | 3.0% | <1% | 4.3% | 24% |  |  |
| CC[C@H](C)[C@@H](C(=O)N[C@@H](CC(C)C)C(=O)N[C@@H](CO)C(=O)N[C@@H](CO)C(=O)N[C@H](C(=O)N[C@@H](CCC(=O)O)C(=O)N[C@H](C(=O)NCC(=O)N[C@@H](CO)C(=O)N[C@@H](CC(N)=O)C(=O)N[C@H](C(=O)N1C[C@H](O)C[C@H]1C(N)=O)[C@@H](C)O)C(C)C)[C@@H](C)O)N(C)C(=O)[C@H](C)NC(=O)CN(C)C(=O)[C@H](Cc1ccccc1)NC(=O)[C@H](CO)NC(=O)[C@H](CO)NC(=O)[C@H](CCCNC(=N)N)NC(=O)[C@H](CCC(N)=O)NC(=O)[C@H](CC(C)C)NC(=O)[C@H](Cc1ccccc1)NC(=O)[C@H](CCCC(=O)O)NC(=O)[C@H](C)NC(=O)[C@H](CC(C)C)NC(=O)[C@H](CCCNC(=N)N)NC(=O)[C@H](CCC(N)=O)NC(=O)[C@@H](NC(=O)[C@H](C)NC(=O)[C@@H]1CCCCNC(=O)C[C@H](NC(=O)[C@H](CCCCN)NC(=O)CC[C@H](NC(=O)CCCCCCCCCCCCCCCCCCC(=O)O)C(=O)O)C(=O)NCC(=O)N[C@@H]([C@@H](C)O)C(=O)N[C@@H](C)C(=O)N[C@@H]([C@@H](C)O)C(=O)N1)[C@@H](C)O [Compound 39, [19CD]-isoGlu-KD()GTATK()ATQRLA-Aad-FLQRSSF-Gly(Me)-Alle(Me)-LSSTEVGSNTHyp-NH2] ({C20 diacid-γGlu}-KDGTATKATQRLA[Aad]FLQRSSF[Sar]A[NMeI]LSSTEVGSNT[Hyp]-NH2; lactam 2-7) | 10.03 | 10.62 | FD | FND | FND | <1% |  | <1% |  | 9.2% | 76% | <1% |  |
| CC[C@H](C)[C@@H](C(=O)N[C@@H](CC(C)C)C(=O)N[C@@H](CO)C(=O)N[C@@H](CO)C(=O)N[C@H](C(=O)N[C@@H](CCC(=O)O)C(=O)N[C@H](C(=O)NCC(=O)N[C@@H](CO)C(=O)N[C@@H](CC(N)=O)C(=O)N[C@H](C(=O)N1C[C@H](O)C[C@H]1C(N)=O)[C@@H](C)O)C(C)C)[C@@H](C)O)N(C)C(=O)[C@H](C)NC(=O)CN(C)C(=O)[C@H](Cc1ccccc1)NC(=O)[C@H](CO)NC(=O)[C@H](CO)NC(=O)[C@H](CCCNC(=N)N)NC(=O)[C@H](CCC(N)=O)NC(=O)[C@H](CC(C)C)NC(=O)[C@H](Cc1ccccc1)NC(=O)[C@H](CCCC(=O)O)NC(=O)[C@H](C)NC(=O)[C@H](CC(C)C)NC(=O)[C@H](CCCNC(=N)N)NC(=O)[C@H](CCC(N)=O)NC(=O)[C@@H](NC(=O)[C@H](C)NC(=O)[C@@H]1CCCCNC(=O)C[C@H](NC(=O)[C@H](CCCNC(=N)N)NC(=O)CC[C@H](NC(=O)CCCCCCCCCCCCCCCCCCC(=O)O)C(=O)O)C(=O)NCC(=O)N[C@@H]([C@@H](C)O)C(=O)N[C@@H](C)C(=O)N[C@@H]([C@@H](C)O)C(=O)N1)[C@@H](C)O [Compound 40, [19CD]-isoGlu-RD()GTATK()ATQRLA-Aad-FLQRSSF-Gly(Me)-A-Ile(Me)-LSSTEVGSNT-Hyp-NH2] ({C20 diacid-γGlu}-RDGTATKATQRLA[Aad]FLQRSSF[Sar]A[NMeI]LSSTEVGSNT[Hyp]-NH2; lactam 2-7) | 10.55 | 11.10 | FD | FND | FND | <1% |  | <1% |  | 7.3% | 83% | 1.1% |  |
| CC[C@H](C)[C@@H](C(=O)N[C@@H](CC(C)C)C(=O)N[C@@H](CO)C(=O)N[C@@H](CO)C(=O)N[C@H](C(=O)N[C@@H](CCC(=O)O)C(=O)N[C@H](C(=O)NCC(=O)N[C@@H](CO)C(=O)N[C@@H](CC(N)=O)C(=O)N[C@H](C(=O)N1C[C@H](O)C[C@H]1C(N)=O)[C@@H](C)O)C(C)C)[C@@H](C)O)N(C)C(=O)[C@H](C)NC(=O)CN(C)C(=O)[C@H](Cc1ccccc1)NC(=O)[C@H](CO)NC(=O)[C@H](CO)NC(=O)[C@H](CCCNC(=N)N)NC(=O)[C@H](CCC(N)=O)NC(=O)[C@H](CC(C)C)NC(=O)[C@H](Cc1ccccc1)NC(=O)[C@H](CC(=O)O)NC(=O)[C@H](C)NC(=O)[C@H](CC(C)C)NC(=O)[C@H](CCCNC(=N)N)NC(=O)[C@H](CCC(N)=O)NC(=O)[C@@H](NC(=O)[C@H](C)NC(=O)[C@@H]1CCCCNC(=O)C[C@H](NC(=O)[C@H](CCCNC(=N)N)NC(=O)CC[C@H](NC(=O)CCCCCCCCCCCCCCCCCCC(=O)O)C(=O)O)C(=O)NCC(=O)N[C@@H]([C@@H](C)O)C(=O)N[C@@H](C)C(=O)N[C@@H]([C@@H](C)O)C(=O)N1)[C@@H](C)O [Compound 41, [19CD]-isoGlu-RD()GTATK()ATQRLADFLQRSSF-Gly(Me)-A-Ile(Me)-LSSTEVGSNT-Hyp-NH2] ({C20 diacid-γGlu}-RDGTATKATQRLADFLQRSSF[Sar]A[NMeI]LSSTEVGSNT[Hyp]-NH2; lactam 2-7) | 10.02 | 10.62 | FND | FND | FND | <1% | <1% | <1% | <1% | 11% | 75% | <1% | 1.1% |
